These results are taken from patent US12691101B2, “Compound and method for preventing or treating of respiratory diseases comprising the same as an active ingredient” (YONSEI UNIVERSITY, UNIVERSITY - INDUSTRY FOUNDATION (UIF), priority 2019, dated 2026).

Each structure is given as a SMILES string. “Also recorded” adds a separate entry of the source. Read-outs that look alike come from different tables or passages of the source.

In test [1] the target is T1, human wild-type (WT)-pendrin (Homo sapiens, UniProt O43511).
T1 construct: expressed in transfected cells
T1 sequence (O43511 1-780): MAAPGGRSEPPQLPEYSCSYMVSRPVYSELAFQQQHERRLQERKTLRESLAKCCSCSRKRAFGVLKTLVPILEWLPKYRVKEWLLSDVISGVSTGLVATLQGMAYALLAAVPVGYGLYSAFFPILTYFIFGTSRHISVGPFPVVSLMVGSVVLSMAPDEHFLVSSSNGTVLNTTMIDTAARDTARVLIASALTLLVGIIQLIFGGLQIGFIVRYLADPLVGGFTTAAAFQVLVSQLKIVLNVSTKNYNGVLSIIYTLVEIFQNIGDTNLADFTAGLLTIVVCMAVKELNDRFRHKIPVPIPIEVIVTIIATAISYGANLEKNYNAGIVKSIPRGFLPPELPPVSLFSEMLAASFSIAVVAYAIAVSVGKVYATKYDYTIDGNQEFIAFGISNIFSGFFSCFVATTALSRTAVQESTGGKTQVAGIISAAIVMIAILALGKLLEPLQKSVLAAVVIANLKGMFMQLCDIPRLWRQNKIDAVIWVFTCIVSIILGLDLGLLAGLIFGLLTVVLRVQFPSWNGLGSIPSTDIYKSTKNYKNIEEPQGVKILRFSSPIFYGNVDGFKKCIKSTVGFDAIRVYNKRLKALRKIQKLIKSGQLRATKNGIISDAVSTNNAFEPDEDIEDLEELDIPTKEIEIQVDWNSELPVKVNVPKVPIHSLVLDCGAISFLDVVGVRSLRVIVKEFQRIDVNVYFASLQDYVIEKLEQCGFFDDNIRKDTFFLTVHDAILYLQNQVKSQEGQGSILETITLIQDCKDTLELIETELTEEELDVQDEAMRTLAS
The experiment in a line: Pendrin-mediated Cl^−/I^− exchange activity, YFP fluorescence in CHO-K1 cells. In kind it is cell-based. Conditions: for inhibition at 30 µM: CHO-K1, 30 μM, read-out: Pendrin inhibitory activity at 30 μM (%); for inhibition of pendrin Cl^−/I^− exchange activity: CHO-K1 cells, pretreated 10 minutes.

Test [2] concerns the target T1, human wild-type (WT)-pendrin. Briefly: Pendrin-mediated Cl^−/SCN^− exchange activity in CHO-K1 cells. It is filed as cell-based. Here is the method: For measurement of Cl^−/SCN^− exchange activity, YFP fluorescence was measured in pendrin and halide sensor YFP expressing CHO-K1 cells. To measure the Cl^−/SCN^− exchange activity, HEPES buffer solution was changed to NaSCN-substituted HEPES buffer solution (140 mM NaSCN, 5 mM KCl, 1 mM MgCl2, 1 mM CaCl2, 10 mM glucose and 10 mM HEPES (pH 7.4)) for generation of an SCN^− gradient driving SCN^− inflow by pendrin. The YFP fluorescence change by SCN^− inflow was monitored using FLUOstar Omega microplate reader (BMG Labtech) and MARS data analysis software (BMG Labtech).

The mark [3] stands for this setting: compounds showing pendrin inhibitory activity of 50% or more at 30 μM, read-out: IC50.

For `CC(C)(C)c1ccc(C2=NC(=Cc3ccc[nH]3)C(=O)O2)cc1` [F10, 4-((1H-pyrrol-2-yl)methylene)-2-(4-(tert-butyl)phenyl)oxazol-5 (4H)-one], in test [1], the inhibition at 30 µM is 100% and the “inhibition of pendrin Cl^−/I^− exchange activity” value is reported as “strongly inhibit”. Further, the IC50 in test [1] (FIG. 4(b), read-out: inhibitory effect on the Cl—/I— exchange activity: IC50) was approximately 80 nM. Moreover, in test [1] (setting [3]), the IC50 came to 80 ± 20 nM. Further, in test [2], the “inhibition of pendrin Cl^−/SCN^− exchange activity” value was “strongly inhibit”.
As to `CC(C)(C)c1ccc(C2=NC(=Cc3cccs3)C(=O)O2)cc1` [F56, 2-(4-(tert-butyl)phenyl)-4-(thiophen-2-ylmethylene)oxazol-5(4H)-one], the inhibition at 30 µM in test [1] was 84.7%. For the same compound, in test [1], the “inhibition of pendrin Cl^−/I^− exchange activity” value is reported as “significantly inhibited; also recorded: strongly inhibited”. Further, the IC50 in test [1] (FIG. 4(a), read-out: 50% inhibition of Cl^−/I^− exchange activity) was approximately 3000 nM; in test [1] (setting [3]), 3300 ± 640 nM. For the same compound, the “inhibition of pendrin Cl^−/SCN^− exchange activity” value in test [2] was “strongly inhibited”.
